Molecular target: T1, Mur23 (Streptomyces sp. NRRL 30471, UniProt F2WUD5)
T1 sequence (F2WUD5 1-388): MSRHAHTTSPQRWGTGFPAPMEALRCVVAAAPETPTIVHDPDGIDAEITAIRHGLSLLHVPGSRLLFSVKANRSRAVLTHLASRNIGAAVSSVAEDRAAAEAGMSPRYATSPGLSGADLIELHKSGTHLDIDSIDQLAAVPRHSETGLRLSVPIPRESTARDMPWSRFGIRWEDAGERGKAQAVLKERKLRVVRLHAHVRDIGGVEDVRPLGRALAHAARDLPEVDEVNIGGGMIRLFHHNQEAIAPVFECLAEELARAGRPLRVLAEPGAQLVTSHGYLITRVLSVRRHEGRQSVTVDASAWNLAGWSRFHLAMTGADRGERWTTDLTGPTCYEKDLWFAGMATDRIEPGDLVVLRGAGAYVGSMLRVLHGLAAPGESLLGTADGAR
Test: co-purification, UV/Vis spectrum
Assay type: binding
Conditions: bound as purified

## Cc1ncc(COP(=O)(O)O)c(C=O)c1O [PLP, pyridoxal-5′-phosphate]
  co-purification, UV/Vis spectrum: Mur23 copurified with PLP as evident by the yellow color and the characteristic UV/Vis spectrum

Source: PMC7377962 (Nature chemical biology, 2020)
